According to paper PMC9658835, “Acetophenone-Based 3,4-Dihydropyrimidine-2(1H)-Thione as Potential Inhibitor of Tyrosinase and Ribonucleotide Reductase: Facile Synthesis, Crystal Structure, In-Vitro and In-Silico Investigations” (International Journal of Molecular Sciences, 2022):

Target: mushroom tyrosinase
Assay: mushroom tyrosinase (Sigma) enzyme inhibition assay
Assay type: biochemical

## CC(=O)c1ccc(N2C(=S)NC(C)(C)C=C2C)cc1 [compound 4, 1-(4-(4,4,6-trimethyl-2-thioxo-3,4-dihydropyrimidin-1(2H)-yl)phenyl)ethan-1-one]
  IC50: 1980 nM
